Patent publication US20220380341A1, “INHIBITORS OF HIV-1 NEF FOR THE TREATMENT OF HIV DISEASE” (priority 2018, published 2022)
“And” between values parts separate entries of the source, which are not always exact repeats. Equal entries are not always repeated. Where two headings read alike, the source gives them in different places.

Columns and labels:
HIV-1NL4-3 = test: HIV-1 infectivity assay in TZM-bl reporter cell line (LTR-luciferase, 48 h); type: cell-based; conditions: for inhibition at 1 µM: Human immunodeficiency virus 1, TZM-bl
How it was run: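 Percent inhibition of HIV-1NL4-3 infectivity at 1 μM compound, from luciferase output of TZM-bl cells 48 h after infection. Scale anchors are DMSO-treated wild-type infection as zero and DMSO-treated Nef-defective infection as full Nef-dependent effect.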

TZM-bl cell line = type: cell-based; conditions: human, 1 μM
How it was run: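 TZM-bl cells (HIV-1 LTR-luciferase) infected with HIV-1NL4-3 with compound at 1 μM; luciferase read 48 h later. Percent inhibition normalized to DMSO wild-type infection (0%) and Nef-defective HIV-1 infection (100% of Nef-dependent effect). Viability in uninfected TZM-bl cells by Cell Titer Blue.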

HIV-1 NefNL4-3 = HIV-1 NefNL4-3 (Human immunodeficiency virus type 1 group M subtype B, UniProt P03406, A33V/T15A/T51N/V11I); test: Surface plasmon resonance binding to recombinant full-length Nef (NL4-3); conditions: for RU30/RUNef (extent of binding): response units at 30 μM relative to Nef immobilized on the SPR chip
[1] = 1.0 μM, TZM-bl reporter cell line, Table 4, read-out: % Infectivity Inhibition
[2] = 48 h, Table 1, TZM-bl cells, 1 μM, 48 h, 100% = Nef-defective HIV-1, read-out: HIV-1 Infectivity % Inhibition Norm. to Δ-Nef @ 1 μM
[3] = Table 4, 2-step induced fit, T = 1/koff2
[4] = read-out: Nef NL4-3 Binding, SPR 1:1 or 2-site fitting KD2, Table 1, 2-site fit, second component
[5] = KD, M, Table 4, SPR fit 2-step induced fit, KD = koff/kon × koff2/(koff2 + kon2)
[6] = Nef NL4-3 Binding, SPR 2-state fitting KD, Table 1, 2-step induced-fit model
[7] = 48 h, Table 2, TZM-bl cells, 1 μM, 48 h, 100% = Nef-defective HIV-1, read-out: HIV-1 Infectivity % Inhibition Norm. to Δ-Nef @ 1 μM
[8] = KD, M, Table 4, SPR fit 1:1 Langmuir, KD = koff/kon
[9] = Table 4, 1:1 Langmuir fit, T = 1/koff
[10] = Table 1, 1:1 Langmuir fit where the KD2 cell says '1 to 1 fitting', else 2-site fit

Compound	inhibition at 1 µM (HIV-1NL4-3; [1])	inhibition at 1 µM (HIV-1NL4-3; [2])	% Cell Viability (TZM-bl cell line)	Percent Viability @ 1 μM (TZM-bl cells) (TZM-bl cell line)	T, minutes (residence time) (HIV-1 NefNL4-3; [3])	RU30/RUNef (extent of binding) (HIV-1 NefNL4-3)	Kd (HIV-1 NefNL4-3; [5])	Kd (HIV-1 NefNL4-3)	other results
Cc1ccn(CCc2c(-c3ccc(C(F)(F)F)cc3)nn(-c3nc4ccccc4[nH]3)c2O)n1 [Compound I-128, 1-(1H-1,3-benzodiazol-2-yl)-4-[2-(3-methyl-1H-pyrazol-1-yl)ethyl]-3-[4-(trifluoromethyl)phenyl]-1H-pyrazol-5-ol]	33.5%	33.5%	97.9%	97.9%	1.20E + 03 minutes	5.56E- 03			Kd (HIV-1 NefNL4-3; Table 4, SPR fit 2-step induced fit, KD = koff/kon × koff2/(koff2 + kon2)): 0.00764 µM; Kd (HIV-1 NefNL4-3; read-out: Nef NL4-3 Binding, SPR 1:1 or 2-site fitting KD1, Table 1, 1:1 Langmuir fit where the KD2 cell says '1 to 1 fitting', else 2-site fit): 0.000146 µM; Kd (HIV-1 NefNL4-3; [4]): 4.33 µM; Kd (HIV-1 NefNL4-3; read-out: Nef NL4-3 Binding, SPR 2-state fitting KD, Table 1, 2-step induced-fit model): 0.00764 µM
Oc1c(CCC2CCOCC2)c(-c2ccc(F)cc2)nn1-c1nc2ccccc2[nH]1 [Compound I-182, 1-(1H-1,3-benzodiazol-2-yl)-3-(4-fluorophenyl)-4-[2-(oxan-4-yl)ethyl]-1H-pyrazol-5-ol]	100%		90%		9.98E + 00 minutes	1.11E- 02	4.42 µM		
Oc1c(CCc2ccc(F)cc2)c(CNCc2cccnc2)nn1-c1nc2ccccc2[nH]1 [Compound I-811, 1-(1H-1,3-benzodiazol-2-yl)-4-[2-(4-fluorophenyl)ethyl]-3-({[(pyridin-3-yl)methyl]amino}methyl)-1H-pyrazol-5-ol]	8.3%	8.3%	100%	100.7%	3.83E- 01 minutes	3.57E- 03	12.6 µM	0.559 µM	Kd (HIV-1 NefNL4-3; [6]): 12.6 µM; Kd (HIV-1 NefNL4-3; [4]): 2.38 µM
Oc1c(CCC2CCOCC2)c(-c2cccc(F)c2)nn1-c1nc2cccnc2[nH]1 [Compound I-304, 3-(3-fluorophenyl)-1-{3H-imidazo[4,5-b]pyridin-2-yl}-4-[2-(oxan-4-yl)ethyl]-1H-pyrazol-5-ol]	0%	-2%	98.7%	98.7%	1.25E + 01 minutes	5.25E- 03	3.15 µM	0.138 µM	Kd (HIV-1 NefNL4-3; [6]): 3.15 µM; Kd (HIV-1 NefNL4-3; [4]): 40.3 µM
CS(=O)(=O)c1ccc(-c2nn(-c3cc(C(F)(F)F)n[nH]3)c(O)c2CCc2ccc(F)cc2)cc1 [Compound I-603, 4-[2-(4-fluorophenyl)ethyl]-3-(4-methanesulfonylphenyl)-5′-(trifluoromethyl)-2′H-[1,3′-bipyrazol]-5-ol]	57.8%		100%	106.0%	2.18E + 00 minutes	1.19E- 02	35.1 µM	1.83 µM	inhibition at 1 µM (HIV-1NL4-3; [7]): 57.8%; Kd (HIV-1 NefNL4-3; Nef NL4-3 Binding, SPR 1:1 or 2-site fitting KD2, Table 2, 2-site fit, second component): 3.6 µM; Kd (HIV-1 NefNL4-3; Nef NL4-3 Binding, SPR 2-state fitting KD, Table 2, 2-step induced-fit model): 0.058 µM
Oc1c(CCc2ccncc2)c(-c2cccc(F)c2)nn1-c1cc(C(F)(F)F)n[nH]1 [Compound I-615, 3-(3-fluorophenyl)-4-[2-(pyridin-4-yl)ethyl]-5′-(trifluoromethyl)-2′H-[1,3′-bipyrazol]-5-ol]				98.9%					inhibition at 1 µM (HIV-1NL4-3; [7]): 47.9%; Nef NL4-3 Binding, SPR 1:1 or 2-site fitting KD1 (HIV-1 NefNL4-3; Table 2, 1:1 Langmuir fit where the KD2 cell says '1 to 1 fitting', else 2-site fit): No interaction
Oc1c(CC2CCOCC2)c(-c2ccc(F)cc2)nn1-c1nc2cc(F)ccc2[nH]1 [Compound I-173, 1-(5-fluoro-1H-1,3-benzodiazol-2-yl)-3-(4-fluorophenyl)-4-[(oxan-4-yl)methyl]-1H-pyrazol-5-ol]	97.2%		85.7%		7.12E + 04 minutes	5.24E- 03	0.000348 µM		
Oc1c(CCc2ccc(F)cc2)c(C2CCOCC2)nn1-c1cc(C(F)(F)F)n[nH]1 [Compound I-623, 4-[2-(4-fluorophenyl)ethyl]-3-(oxan-4-yl)-5′-(trifluoromethyl)-2′H-[1,3′-bipyrazol]-5-ol]	17.4%		100%	100.7%		1.67E- 02		221 µM	inhibition at 1 µM (HIV-1NL4-3; [7]): 17.4%; Kd (HIV-1 NefNL4-3; [8]): 221 µM; T, minutes (residence time) (HIV-1 NefNL4-3; [9]): 2.88E + 00 minutes
Cn1c(-n2nc(-c3ccc(C(F)(F)F)cc3)c(CCc3ccc(F)cc3)c2O)nc2ccccc21 [Compound I-401, 4-[2-(4-fluorophenyl)ethyl]-1-(1-methyl-1H-1,3-benzodiazol-2-yl)-3-[4-(trifluoromethyl)phenyl]-1H-pyrazol-5-ol]	99.6%		86.4%		1.45E + 03 minutes	2.01E- 02	78.4 µM	1.89 µM and 0.237 µM	HIV-1 Infectivity % Inhibition Norm. to Δ-Nef @ 1 μM (HIV-1NL4-3; Table 1, TZM-bl cells, 1 μM, 48 h, 100% = Nef-defective HIV-1): 52.3%; Kd (HIV-1 NefNL4-3; Nef NL4-3 Binding, SPR 1:1 or 2-site fitting KD2, Table 1, 2-site fit, second component): 2.47 µM; Kd (HIV-1 NefNL4-3; [4]): 18.1 µM
O=C(c1cccc(O)n1)N1CCC(c2nn(-c3nc4ccccc4[nH]3)c(O)c2CCc2ccc(F)cc2)CC1 [Compound I-731, 6-{4-[1-(1H-1,3-benzodiazol-2-yl)-4-[2-(4-fluorophenyl)ethyl]-5-hydroxy-1H-pyrazol-3-yl]piperidine-1-carbonyl}pyridin-2-ol]		11.5%		98.9%					Nef NL4-3 Binding, SPR 1:1 or 2-site fitting KD1 (HIV-1 NefNL4-3; [10]): No Interaction
CC(C)(C)OC(=O)N1CCC(c2nn(-c3nc4cccc(Cl)c4[nH]3)c(O)c2CCc2ccc(F)cc2)CC1 [Compound I-217, tert-butyl 4-[1-(7-chloro-1H-1,3-benzodiazol-2-yl)-4-[2-(4-fluorophenyl)ethyl]-5-hydroxy-1H-pyrazol-3-yl]piperidine-1-carboxylate]		0.1%		104.9%					Nef NL4-3 Binding, SPR 1:1 or 2-site fitting KD1 (HIV-1 NefNL4-3; [10]): No Interaction
Oc1c(CC2CCOCC2)c(C2CC(F)(F)C2)nn1-c1nc2cccnc2[nH]1 [Compound I-316, 3-(3,3-difluorocyclobutyl)-1-{3H-imidazo[4,5-b]pyridin-2-yl}-4-[(oxan-4-yl)methyl]-1H-pyrazol-5-ol]	32.8%		99.7%			1.19E- 03			Kd (HIV-1 NefNL4-3; [8]): 4.49 µM; T, minutes (residence time) (HIV-1 NefNL4-3; [9]): 5.19E + 00 minutes
Oc1c(CC2CCOCC2)c(-c2ccc(F)cc2)nn1-c1nc2cccnc2[nH]1 [Compound I-313, 3-(4-fluorophenyl)-1-{3H-imidazo[4,5-b]pyridin-2-yl}-4-[(oxan-4-yl)methyl]-1H-pyrazol-5-ol]	33.2%	33.2%	96.7%	96.7%		5.15E- 03		0.48 µM	Kd (HIV-1 NefNL4-3; [8]): 0.48 µM; T, minutes (residence time) (HIV-1 NefNL4-3; [9]): 2.92E + 01 minutes
C[C@@](O)(C(=O)N1CCC(CCc2c(C3CC3)nn(-c3nc4ccccc4[nH]3)c2O)CC1)C(F)(F)F [Compound I-783, (2R)-1-(4-{2-[1-(1H-1,3-benzodiazol-2-yl)-3-cyclopropyl-5-hydroxy-1H-pyrazol-4-yl]ethyl}piperidin-1-yl)-3,3,3-trifluoro-2-hydroxy-2-methylpropan-1-one]	5.4%		100%			1.38E- 03			Kd (HIV-1 NefNL4-3; [8]): 3.37 µM; T, minutes (residence time) (HIV-1 NefNL4-3; [9]): 4.08E + 00 minutes
